Reference: patent US10689384B2, “Imidazo[1,2-a]quinoxalines and derivatives thereof for the treatment of cancer” (Universite de Montpellier, priority 2014, dated 2020)
pEC50, pIC50: −log10 of the molar value.

How the values were obtained:
Type in all cases: cell-based
human cancer cell lines = test: In vitro cytotoxicity study, Summarized results 2 (cell line not given); settings: Table 4, Summarized results 2, cell line not stated
Procedure: (§1) The goal of this protocol is to study the effects of the compounds on the proliferation of various human cancer cell lines in order to evaluate the EC50 and their activity in cellulo.
(§2) The cells are seeded the day before treatment in 96 well plates. Each compound concentration is tested in triplicate. A 96 well plate can contain 3 compounds.
(§3) Stock solutions of the tested compounds are prepared at 10 mM in 100% DMSO and stored at […].
(§4) The analysis is carried out by using the GraphPad PRISM 5.0 software.
(§5) Day 1: the cells are seeded one day before treatment with the compounds in 96 well plates. Cell suspensions for each cancer cell line are prepared with a specific density in a specific culture medium (see preceding table). Next, 100 µL of cell suspension is distributed per well (1×96 well plate per cell line).
(§6) Day 2: 24 hours later, the […] compounds or controls (DMSO) are added to the cells ([…] of a compound solution in its specific medium with a final DMSO concentration of 0.15%).
(§7) Each compound concentration is tested in triplicate (6 concentrations between 10^−9 M and 10^−5 M per compound). The cells are incubated at 37° C. for 72 hours with no new treatment.
(§8) Day 5: 15 minutes before incubation of the cells with MTT (3-[4,5-dimethylthiazol-2-yl]-2,5-diphenyltetrazolium bromide), 10% SDS is added to the control wells to obtain a final concentration of 1%. The positive control of inhibition of proliferation is 1% SDS.
(§9) Once the medium is removed, 100 µL of a solution of MTT in fresh medium is added to each well (10 μL of 10×MTT solution at 5 mg/mL in PBS +[…] of fresh medium) and the plates are incubated for 4 hours at 37° C.
(§10) The MTT reaction is quenched and the medium is homogenized by addition of […] of 10% SDS/0.01 M HCl solution placed in each well. The medium is incubated for 2 hours at 37° C. before measuring its absorbance. Absorbance is measured at 570 nm.

A2058 = test: In vitro cytotoxicity study, inhibition of cell growth (MTT); settings: Homo sapiens, A2058, melanoma, 72 hours
Procedure: as §1, §2
(§11) Cell suspensions for each cancer cell line are prepared in culture medium with a specific density of the specific cell (see the following table). Then, 100 µL of cell suspension is spread per well (plate per one cell line).
as §3, §4, §5, §6, §7, §8, §9, §10

A375 = test: as above; settings: Homo sapiens, A-375, A375, melanoma, 72 hours
Procedure: as §1, §2, §11, §3, §4, §5, §6, §7, §8, §9, §10

AsPC-1 = test: as above; settings: Homo sapiens, ASPC1, AsPC-1, pancreas, 72 hours
Procedure: as §1, §2, §11, §3, §4, §5, §6, §7, §8, §9, §10

BxPC3 = test: as above; settings: Homo sapiens, BXPC-3, BxPC3, pancreas, 72 hours
Procedure: as §1, §2, §11, §3, §4, §5, §6, §7, §8, §9, §10

CFPAC-1 = test: as above; settings: Homo sapiens, CFPAC-1, pancreas, 72 hours
Procedure: as §1, §2, §11, §3, §4, §5, §6, §7, §8, §9, §10

COLO-205 = test: as above; settings: Homo sapiens, COLO-205, colon, 72 hours
Procedure: as §1, §2, §11, §3, §4, §5, §6, §7, §8, §9, §10

Calu-1 = test: as above; settings: Homo sapiens, Calu-1, lung, 72 hours
Procedure: as §1, §2, §11, §3, §4, §5, §6, §7, §8, §9, §10

Capan-1 = test: as above; settings: Homo sapiens, Capan-1, pancreas, 72 hours
Procedure: as §1, §2, §11, §3, §4, §5, §6, §7, §8, §9, §10

HepG2 = test: as above; settings: Homo sapiens, HepG2, liver, 72 hours
Procedure: as §1, §2, §11, §3, §4, §5, §6, §7, §8, §9, §10

IPC298 = test: as above; settings: Homo sapiens, IPC-298, IPC298, melanoma, 72 hours
Procedure: as §1, §2, §11, §3, §4, §5, §6, §7, §8, §9, §10

LoVo = test: as above; settings: Homo sapiens, colon, 72 hours
Procedure: as §1, §2, §11, §3, §4, §5, §6, §7, §8, §9, §10

MEWO = test: as above; settings: Homo sapiens, melanoma, 72 hours
Procedure: as §1, §2, §11, §3, §4, §5, §6, §7, §8, §9, §10

PC-3 = test: as above; settings: Homo sapiens, PC-3, prostate, 72 hours
Procedure: as §1, §2, §11, §3, §4, §5, §6, §7, §8, §9, §10

PF382 = test: as above; settings: Homo sapiens, PF-382, PF382, lymphoid, 72 hours
Procedure: as §1, §2, §11, §3, §4, §5, §6, §7, §8, §9, §10

T-47D = test: as above; settings: Homo sapiens, T47D, breast, 72 hours
Procedure: as §1, §2, §11, §3, §4, §5, §6, §7, §8, §9, §10

How did the pIC50 (human cancer cell lines; Homo sapiens) turn out when `Oc1ccc(-c2cnc3c(N4CCNCC4)nc4ccccc4n23)cc1O` [EAPB0 2308, 4-(4-(Piperazin-1-yl)imidazo[1,2-a]quinoxalin-1-yl)benzene-1,2-diol] was run?
Its pIC50 is under 5.00.

With `NCCNc1nc2ccccc2n2c(-c3ccc(O)c(O)c3)cnc12` [EAPB 02306s, 2-((1-(3,4-Dihydroxyphenyl)imidazo[1,2-a]quinoxalin-4-yl)amino)ethylammonium chloride] as the compound, how does the pIC50 (human cancer cell lines) read?
The pIC50 was 5.77.

`COc1ccc(-c2cnc3c(NC(CC(C)C)C(=O)OC(C)(C)C)nc4ccccc4n23)cc1OC` (stereo not drawn) [EAPB 02222] was tested. Which pIC50 (human cancer cell lines; Homo sapiens) did it give?
The pIC50 was under 5.00.

What does the source list for `Nc1nc2ccccc2n2c(-c3ccc(O)c(O)c3)cnc12` [EAPB02302, 1-(3,4-Dihydroxyphenyl)imidazo[1,2-a]quinoxalin-4-amine]?
pEC50 (A2058): 7.89; pEC50 (A375): 7.22; pEC50 (AsPC-1): 5.74; pEC50 (BxPC3): 7.60; pEC50 (CFPAC-1): 7.17; pEC50 (COLO-205): 7.36; pEC50 (Calu-1): 7.85; pEC50 (Capan-1): 6.69; pEC50 (HepG2): 6.57; pEC50 (IPC298): 7.12; pEC50 (LoVo): 7.36; pEC50 (MEWO): 8.00; pEC50 (PC-3): 7.25; pEC50 (PF382): 7.54; pEC50 (T-47D): 7.11

`CNc1nc2ccccc2n2c(Br)cnc12` [CPA 8, 1-Bromo-N-methylimidazo[1,2-a]quinoxalin-4-amine] was tested. Which pIC50 (human cancer cell lines; Homo sapiens) did it give?
The pIC50 was 5.63.

`CNc1nc2cc(C(F)(F)F)ccc2n2c(-c3ccc(O)c(O)c3)cnc12` [EAPB 02303-7a, 4-(4-(Methylamino)-7-(trifluoromethyl)imidazo[1,2-a]quinoxalin-1-yl)benzene-1,2-diol] was tested. Which pIC50 (human cancer cell lines; Homo sapiens) did it give?
Its pIC50 is 5.16.

`O=C(CNc1nc2ccccc2n2c(-c3ccc(O)c(O)c3)cnc12)NC(CO)(CO)CO` [EAPB 02310] was tested. Which pIC50 (human cancer cell lines; Homo sapiens) did it give?
Its pIC50 is under 5.00.

With `CNc1nc2ccc(C(F)(F)F)cc2n2c(-c3ccc(O)c(O)c3)cnc12` [EAPB 02303-8a, 4-(4-(Methylamino)-8-(trifluoromethyl)imidazo[1,2-a]quinoxalin-1-yl)benzene-1,2-diol] as the compound, how does the pIC50 (human cancer cell lines; Homo sapiens) read?
The pIC50 was under 5.00.

With `CNc1nc2cc(OC(F)(F)F)ccc2n2c(-c3ccc(O)c(O)c3)cnc12` [EAPB 02303-7b, 4-(4-(Methylamino)-7-(trifluoromethoxy)imidazo[1,2-a]quinoxalin-1-yl)benzene-1,2-diol] as the compound, how does the pIC50 (human cancer cell lines; Homo sapiens) read?
Its pIC50 is 6.70.

How did the pIC50 (human cancer cell lines; Homo sapiens) turn out when `COc1ccc(-c2cnc3c(NC(C(=O)OC(C)(C)C)C(C)C)nc4ccccc4n23)cc1OC` (stereo not drawn) [EAPB 02220] was run?
Its pIC50 is under 5.00.

With `COc1ccc(-c2cnc3c(NC(C)C(=O)OC(C)(C)C)nc4ccccc4n23)cc1OC` (stereo not drawn) [EAPB 02218] as the compound, how does the pIC50 (human cancer cell lines; Homo sapiens) read?
The pIC50 was under 5.00.

`COc1ccc(-c2cnc3c(NCCNC(=O)OC(C)(C)C)nc4ccccc4n23)cc1OC` [EAPB 02211, tert-Butyl (2-((1-(3,4-dimethoxyphenyl)imidazo[1,2-a]quinoxalin-4-yl)amino)ethyl)carbamate] was tested. Which pIC50 (human cancer cell lines; Homo sapiens) did it give?
Its pIC50 is under 5.00.

How did the pIC50 (human cancer cell lines; Homo sapiens) turn out when `NCCCNc1nc2ccccc2n2c(-c3ccc(O)c(O)c3)cnc12` [EAPB 02309, 4-(4-((3-Aminopropyl)amino)imidazo[1,2-a]quinoxalin-1-yl)benzene-1,2-diol] was run?
Its pIC50 is 5.25.
